Measured values taken from patent US9290737B2, “Method for enucleating nucleated erythrocyte, and enucleation inducer” (Kanazawa Medical University, priority 2009, dated 2016).
Where no end group is shown, it is not given here.

Columns and labels:
Format in all cases: cell-based
[1] = system: nucleated erythrocytes derived from a fetal rat; experiment: Enucleation rate of nucleated erythrocytes derived from fetal rat (DAPI staining, fluorescence microscope count); settings: vs control without peptide
Protocol: Experimental rats were bred, and peripheral blood was collected from 12 fetuses aged 13 days post coitum.
The collected peripheral blood was centrifuged at 1,000×g for 5 minutes at room temperature (centrifuge: Hitachi/05PR-22). Then, serum was removed, and blood cells were suspended in 10 ml of culture medium (supplemented with 10% FBS (Sigma/CR1211)/RPMI-1640 Medium (c) (Sigma/R8578)/1% penicillin-streptomycin (Sigma/P4333)) in a clean bench. This suspension was centrifuged again, a supernatant was removed, and the cells were resuspended in the culture medium. This manipulation was repeated twice, and finally the cells were suspended in 10 ml of the culture medium to prepare a sample for culturing peripheral blood.
A blood cell (cell) density was counted using about 10 μl of this sample and a hemocytometer (Burker-Turk Deep 1/10 mm/Erma Tokyo/7787), and the sample was diluted based on the counted value to adjust to 2×10^6 cells/ml.
(§1) This sample was diluted to a cell density of 1×10^6 cells/ml with the culture medium, to which ACTH1-24 (SEQ ID NO: 2, manufactured by Sigma) was added at a final concentration of 1 μM or 5 μM to use as a subject culture medium. The sample to which no ACTH1-24 was added was used as a control.
1 ml each of the various subject culture media was dispensed into a 4-well chamber slide glass (Chamber Slide™ System/Lab Tek (registered trademark)/177380), and cultured for a predetermined period of time in an incubator (Sakura CO2 gas Incubator/Sakura/IC-160) under the condition at 37° C. at 5% CO2.
At 0, 3, and 6 hours of the culture, the cells in each subject culture medium were fixed with glutaraldehyde (25% glutaraldehyde solution/Wako Pure Chemical Industries Ltd./073-00536) at a final concentration of 2%. DAPI (1 mg/ml of DAPI solution/DOJINDO/340-07971) for staining nuclei was dripped to the culture medium at a final volume ratio of 1/20,000, which was then shaken for 5 minutes, subsequently excited by a UV source using a fluorescence microscope (OLYMPUS IX70), and 10 fixed points were photographed. Then, the number of cells in the photograph was counted.
The enucleation rate was calculated as follows. Enucleation rate (%)={Enucleated erythrocyte count/Total cell count (Nucleated cell (including nucleated erythrocytes and mesenchymal stem cells) count+Enucleated erythrocyte count)} […]
as §1, with “CLIP” for “ACTH1-24”, “11, manufactured by Sigma) or α-MSH (SEQ ID NO: 3,” for “2,”, “neither CLIP nor α-MSH” for “no ACTH1-24”
250 μl each of the various subject culture media were dispensed in an 8-well chamber slide glass (Chamber Slide™ System/Lab TekR/177402), and cultured for a predetermined period of time in an incubator under the condition at 37° C. at 5% CO2. At 3, 6, and 9 (only for the 5-μM addition samples) hours of the culture, each subject culture medium was sampled, and the culture medium was fixed with glutaraldehyde at a final concentration of 2%. DAPI for staining nuclei was dripped to the culture medium, which was then shaken for 5 minutes, subsequently microscopically observed using a fluorescence microscope, and 10 field images were randomly determined and photographed. The number of cells in each of the photographs was counted, and the mean value thereof was calculated. The enucleation rate was calculated in the same way as in Example 1.

[2] = system: nucleated erythrocytes derived from human cord blood; experiment: Enucleation rate of nucleated erythrocytes derived from human cord blood CD34-positive cells (DAPI staining and flow cytometry); settings: 5.0 μM added on Day 4 in phase II, measured on Day 9; DAPI staining (FIG. 7) and flow cytometry (FIG. 8)
Protocol: CD34-positive hematopoietic stem cells derived from a human (derived from the cord blood, 90% or more CD34-positive, product from Lonza:
http://catalog.takara-bio.co.jp/product/basic_info.asp?unitid=U10 0004262) were cultured in HPGM medium. The cells at a density of 2×10^4 to 2×10^5 cells/ml were cultured with 25 ng/ml of SCF, 50 ng/ml of thrombopoietin, and 50 ng/ml of Flt-3 ligand for first 7 days, and this was used as a phase I.
Next, the cells at a density of 2×10^5 cells/ml were cultured with 3 U/ml of EPO, 25 ng/ml of SCF, 10 ng/ml of IL-3, and 10 ng/ml of IL-6, and this was used as a phase II. The cells were cultured with the addition of ACTH1-24, ACTH1-39, CLIP, or α-MSH at a concentration of 5.0 μM, or ACTH1-24 at a concentration of 0.5 μM on Day 4 in the phase II.
The erythrocytes in the above-mentioned phase II cultured with ACTH1-24, ACTH1-39, CLIP, or α-MSH on Day 9 were fixed with 10% formalin, and stained with 4′,6-diamidino-2-phenylindole (DAPI). Ten photographs were randomly taken under a fluorescence microscope, and the numbers of nucleated and enucleated erythrocytes were visually counted. The measurement was carried out in the blinded manner. The enucleation rate was calculated in the same manner as in Example 1.
(§2) Double staining for glycophorin A (Gly A) and the nucleus (propidium iodide, PI) was given to blood cells in the phase II cultured with ACTH1-24, CLIP, or α-MSH on Day 9 in the same manner as in the foregoing. The cells were analyzed using a flow cytometry (automatic cell analysis sorting apparatus, FACS Calibur/Becton Dickinson). Gly A-positive/PI-negative cells (corresponding to the left upper fraction of four dot plot fractions divided by data from flow cytometry in FIG. 9B) were determined as enucleated cells, and the enucleation rate of these enucleated cells relative to the total cells was calculated.

[3] = system: cells differentiating into erythrocytes derived from human cord blood; experiment: Enucleation efficiency of cells derived from human cord blood (flow cytometry, Gly A/PI); settings: 0.5 μM, culture as in Example 4, flow cytometry (FIG. 9A)
Protocol: as §2
ACTH1-24 at a concentration of 0.5 μM was added to the culture carried out in the same manner as in Example 4, and the enucleation rate was measured by flow cytometry.
Gly A is a surface marker of erythroblasts, reticulocytes, and mature erythrocytes. Thus, this method was cited as a method of measuring the percentage of “enucleated erythrocytes”/“cells differentiating into erythrocytes” in a population of blood cells including immature erythrocytes (see Peng J. et al., Nat. Cell Biol., 10: 314-321, 2008).

[4] = final concentration 1 μM, after 6 hours of culture
[5] = final concentration 5 μM, 3 hours of culture

Substance | induction of enucleation (enucleation rate) [1, 4] | induction of enucleation (enucleation rate) [1, 5] | induction of enucleation (enucleation rate) [2] | induction of enucleation (enucleation rate) ([1]; final concentration 5 μM, after 6 hours of culture) | percentage of enucleated erythrocytes in cells differentiating into erythrocytes [3]
Acetyl-(N)-Ser-Tyr-Ser-Met-Glu-His-Phe-Arg-Trp-Gly-Lys-Pro-Val-NH2 (Ac-SYSMEHFRWGKPV-NH2) [α-MSH, melanocyte-stimulating hormone peptide containing an acetyl group, manufactured by Sigma] | able to be induced | able to be induced | able to be induced |  | 
RPVKVYPNGAEDESAEAFPLEF [CLIP, Corticotropin-Like Intermediate Lobe Peptide, manufactured by Sigma] | able to be induced | able to be induced | able to be induced |  | 
SYSMEHFRWGKPVGKKRRPVKVYPNVAENESAEAFPLEF [ACTH1-39, adrenocorticotropic hormone, manufactured by Sigma] |  | higher than that in the control | able to be induced |  | 
Ser-Tyr-Ser-Met-Glu-His-Phe-Arg-Trp-Gly-Lys-Pro-Val-Gly-Lys-Lys-Arg-Arg-Pro-Val-Lys-Val-Tyr-Pro (SYSMEHFRWGKPVGKKRRPVKVYP; ACTH1-24) | able to be induced |  | able to be induced | able to be induced | about 70%
